Data on five compounds can be found in patent publication US20110183366A1, “Methods for achieving a protective ACE2 expression level to treat kidney disease and hypertension” (priority 2004, published 2011).

Test [1] has as its system ACE and ACE2 in kidney cortex. In words: 7-Mca-YVADAPK(Dnp) fluorescence assay in kidney cortex tissue extracts. The class given is biochemical, mouse. The note with it: for fluorescence signal, % of control: EDTA 1 mmol/L, captopril and MLN-4760 alone or concomitantly.
In test [2] the target is T1, human recombinant (hr) ACE2 (Homo sapiens, UniProt Q9BYF1).
T1 construct: purchased R&D Systems
In words: Fluorescence quenching with 7-Mca-YVADAPK(Dnp) substrate on recombinant ACE2. The test is classed as biochemical. As to conditions: for quenching of fluorescence: hrACE2 20 nmol/L, inhibitor concentration up to 100 μmol/L. As for the experimental part: A fluorescent substrate of ACE and ACE2, i.e., 7-Mca-YVADAPK(Dnp) (R&D Systems), was used to concurrently assay ACE and ACE2 protein activity in tissue samples. Cleavage of this substrate by either enzyme removes the 2,4-dinitrophenyl moiety that quenches the fluorescence of the 7-methoxycoumarin moiety, thus resulting in increased fluorescence. To prevent undesirable hydrolysis of the substrate by a range of non-metalloprotease enzymes from mouse tissues, all tests were performed with the addition of an inhibitor cocktail (complete EDTA-free tablets, Roche).
MLN-4760 quenched the signal completely at 1-10 nmol/L, whereas a higher concentration (100 nmol/L) of DX600 was needed to achieve complete quenching of the signal. Therefore, further studies were done using MLN-4760. In tissue extracts, the concentrations of MLN-4760 required for fluorescence quenching were high and more variable.

A further test concerns podocytes in culture. The note with it: cited from earlier work.
Test [3] relates to db/m and db/db mice. The experiment in a line: Urinary albumin/creatinine ratio during chronic ACE2 inhibition in db/m and db/db mice. The class given is in vivo, mouse. An excerpt:
Pharmacological ACE2 inhibition in db/m and db/db mice. […] Vehicle control mice received injections of sterile PBS in the same volume. […] Urinary albumin/creatinine ratio. ELISA kits for murine urinary albumin and creatinine companion kits from Exocell were used according to manufacturer's instructions to measure albumin/creatinine ratio in urine samples. Spot urine samples were collected at 8 weeks of age, before initiating the administration of the ACE2 inhibitor, and the AT1 blocker (at 8 weeks of age) and after 12 and 16 weeks of administration of these agents. Statistical analysis. Statistical analysis was performed using unpaired t-test or ANOVA when appropriate. Significance was defined as p<0.05. Data were expressed as mean±SE. The Effect of chronic ACE2 inhibition on albumin excretion and glomerular fibronectin deposition. To determine the extent to which chronic ACE2 inhibition results in increased albuminuria in the db/db mice, a specific ACE2 inhibitor, MLN-4760, was administered to the mice for 16 consecutive weeks starting at 8 weeks of age. At 8 weeks of age, before starting MLN or vehicle administration, db/db mice from both groups had virtually indistinguishable levels of urinary albumin excretion (UAE; 69.5±18 vs. 81±15 μg albumin/mg creatinine, respectively). […] In db/m mice treated with MLN-4760, UAE was higher than in the vehicle-treated db/m controls, but the difference was small and not statistically significant (55±24 vs. 32±3, μg/mg, respectively, p=NS).

Test [4] relates to db/m and db/db mice. The experiment in a line: Glomerular fibronectin staining after chronic ACE2 inhibition. The class given is in vivo, mouse. As for the experimental part:
Pharmacological ACE2 inhibition in db/m and db/db mice. A specific ACE2 inhibitor, MLN-4760 (kind gift from Millennium Pharmaceuticals, Cambridge, Mass.) was injected to db/m and db/db mice subcutaneously (40-80 mg per kg of body weight (mg/kg/BW), every other day), starting at 8 weeks of age until the mice reached the age of 24 weeks. Vehicle control mice received injections of sterile PBS in the same volume.
Chronic ACE2 inhibition was also associated with an increased glomerular deposition of fibronectin, an extracellular matrix protein. In glomeruli from db/m mice receiving MLN-4760, fibronectin staining was increased as compared to their vehicle-treated db/m counterparts. In db/db mice, the MLN-4760 administration was also associated with an exaggeration of fibronectin staining. The number of glomeruli with strong fibronectin staining was used to semi-quantify the observed changes in kidneys from 12-16 animals in each group.

Each structure is given as a SMILES string. “Also recorded” adds a separate entry of the source.

T1 sequence (Q9BYF1 18-805): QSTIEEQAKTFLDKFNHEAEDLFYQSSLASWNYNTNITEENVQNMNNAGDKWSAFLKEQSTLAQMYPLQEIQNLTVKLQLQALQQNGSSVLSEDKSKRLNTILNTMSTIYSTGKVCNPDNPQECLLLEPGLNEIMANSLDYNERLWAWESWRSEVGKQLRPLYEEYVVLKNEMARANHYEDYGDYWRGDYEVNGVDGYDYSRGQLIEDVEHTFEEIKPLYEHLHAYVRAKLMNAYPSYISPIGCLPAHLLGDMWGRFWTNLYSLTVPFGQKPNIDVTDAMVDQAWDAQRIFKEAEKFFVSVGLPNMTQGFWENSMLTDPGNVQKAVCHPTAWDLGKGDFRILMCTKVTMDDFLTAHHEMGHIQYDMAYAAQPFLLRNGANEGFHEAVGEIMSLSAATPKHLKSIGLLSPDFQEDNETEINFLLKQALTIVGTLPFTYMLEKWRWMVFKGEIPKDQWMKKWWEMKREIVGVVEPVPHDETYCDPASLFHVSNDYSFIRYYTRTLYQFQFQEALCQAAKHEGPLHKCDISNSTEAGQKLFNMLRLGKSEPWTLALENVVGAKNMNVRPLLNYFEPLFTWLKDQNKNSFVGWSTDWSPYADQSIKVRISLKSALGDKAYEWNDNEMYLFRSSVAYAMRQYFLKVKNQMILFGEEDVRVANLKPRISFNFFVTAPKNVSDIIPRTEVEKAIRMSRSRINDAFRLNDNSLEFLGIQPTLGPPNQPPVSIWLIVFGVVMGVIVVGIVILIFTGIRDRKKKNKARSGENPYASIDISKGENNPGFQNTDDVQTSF

`O=C(O)CN(CCN(CC(=O)O)CC(=O)O)CC(=O)O` [EDTA]: the “fluorescence signal, % of control” value in test [1] is reported as “about 16 % of control”.
As to `O=C(O)CC(Cc1ccccc1)C(=O)O` (stereo not drawn) [benzyl succinate], the quenching of fluorescence entry in test [2] is “failed to quench fluorescence”. Moreover, in test [1] (benzyl succinate 100 μmol/L), the “reduction of fluorescence signal” value was “did not reduce significantly the fluorescence signal”.
Take `C[C@H](CS)C(=O)N1CCC[C@H]1C(=O)O` [captopril]: the quenching of fluorescence entry in test [2] is “failed to quench fluorescence”. The “fluorescence signal, % of control” value in test [1] is reported as 24.9±1.1 % of control. The “effect on stretch-induced increase in ANG II generation” value in the test on podocytes in culture is given as “did not abrogate the stretch-induced increase in ANG II generation”.
`CCCc1nc2c(C)cc(-c3nc4ccccc4n3C)cc2n1Cc1ccc(-c2ccccc2C(=O)O)cc1` [telmisartan]: the “effect on the increase in urinary albumin associated with the ACE2 inhibitor” value with db/m and db/db mice [3] (db/db mice, telmisartan 2 mg/kg/day in drinking water together with s.c. MLN-4760) was “prevented the increase in urinary albumin excretion; also recorded: completely prevented the increase in urinary albumin”.
As for `CC(C)C[C@H](N[C@@H](Cc1cncn1Cc1cc(Cl)cc(Cl)c1)C(=O)O)C(=O)O` [MLN-4760, (S,S)-2-{1-carboxy-2-[3-(3,5-dichlorobenzyl)-3H-imidazol4-yl]-ethylamino}-4-methylpentanoic acid], the “increase in UAE in comparison to vehicle db/db controls” value in the test on db/m and db/db mice [3] (db/db mice, 16 weeks of treatment, age 24 weeks) is listed as “about three-fold”. The albumin/creatinine ratio in the test on db/m and db/db mice [3] (db/db mice, MLN-4760 s.c. 40-80 mg/kg every other day, after 12 weeks of treatment, vehicle 124±23) amounted to 474 ± 166 µg/mg. Moreover, the “urinary albumin excretion (UAE)” value in the test on db/m and db/db mice [3] (db/db mice, after 16 weeks of treatment, age 24 weeks, vehicle 247±53.9) was 743 ± 200 µg/mg; in the test with db/m and db/db mice [3] (db/m mice treated with MLN-4760, vehicle 32±3, p=NS), 55 ± 24 µg/mg. Besides, the “percentage of glomeruli with strong fibronectin staining” value in the test with db/m and db/db mice [4] (db/db mice treated with MLN-4760, vehicle 28.5%±6.4) was 54.8%±4.6; in the test with db/m and db/db mice [4] (db/m mice receiving MLN-4760, vehicle 17.3%±5.2) it was 41.1%±4.1. For the same compound, the “concentration for complete quenching of the signal” value in test [2] (hrACE2) fell in the range of 1 to 10 nmol/L. The “fluorescence signal, % of control” value in test [1] is given as 46.4±0.7 % of control.
